#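 Each compound was tested at five concentrations against cells in 96-well plates for 48 hours. GI50: concentration for 50% inhibition of growth. TGI: total growth inhibition.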
# What was measured:
# Assay in all cases: DTP human tumour cell line panel, 48 h
# [1] = system: HT29 colon
# [2] = system: M14 melanoma
# [3] = system: HOP-62 NSCLC
# [4] = system: 786-0 renal
# [5] = system: UACC-62 melanoma
# [6] = system: NCI-H23 lung
# [7] = system: SK-MEL-2 melanoma
# [8] = system: IGROV1 ovarian
# [9] = system: SW-620 colon
# [10] = system: BT-549 breast
# [11] = system: HL-60(TB) leukemia
# [12] = system: K-562 leukemia
# [13] = system: OVCAR-3 ovarian
# [14] = system: EKVX NSCLC
# [15] = system: OVCAR-8 ovarian
# [16] = system: SN12C renal
# [17] = system: SK-MEL-28 melanoma
# [18] = system: CAKI-1 renal
# [19] = system: A549 NSCLC
# [20] = system: RXF 393 renal
# [21] = system: NCI-H226 lung
# [22] = system: A498 renal
# [23] = system: MDA-MB-468 breast
# [24] = system: SK-OV-3 ovarian
# [25] = system: KM12 colon
# [26] = system: TK-10 renal
# [27] = system: SF-268 CNS
# [28] = system: HCT-116 colon
# [29] = system: ACHN renal
# [30] = system: NCI-H522 lung
# [31] = system: T-47D breast
# [32] = system: U251 CNS
# [33] = system: MDA-MB-435
# [34] = system: NCI/ADR-RES ovarian
# [35] = system: HCC-2998 colon
# [36] = system: SNB-19 CNS
# [37] = system: NCI-H460 lung
# [38] = system: MALME-3M melanoma
# [39] = system: SK-MEL-5 melanoma
# [40] = system: SNB-75 CNS
# [41] = system: OVCAR-5 ovarian
# [42] = system: UO-31 renal
# [43] = system: SF-539 CNS
# [44] = system: HS 578T breast
# [45] = system: CCRF-CEM leukemia
# [46] = system: MOLT-4 leukemia
# [47] = system: OVCAR-4 ovarian
# [48] = system: MDA-MB-231 breast
# [49] = system: DU-145 prostate
# [50] = system: UACC-257 melanoma
# [51] = system: PC-3 prostate
# [52] = system: RPMI-8226 leukemia
# [53] = system: COLO 205 colon
# [54] = system: SF-295 CNS
# [55] = system: MCF7 breast
# [56] = system: HCT-15 colon
# [57] = system: HOP-92 NSCLC
# [58] = system: SR leukemia
# [59] = system: LOX IMVI melanoma
structure (smiles),measurement,setting,value
Cn1cc(-c2cc(N)n3nc(-c4cn(C)c5ccccc45)cc3n2)c2cc(Cl)ccc21,GI50,[1],1.79 µM
same,TGI,[1],3.51 µM
same,GI50,[2],1.95 µM
same,TGI,[2],4.71 µM
same,GI50,[3],5.29 µM
same,TGI,[3],26.4 µM
same,GI50,[4],1.74 µM
same,TGI,[4],3.45 µM
same,GI50,[5],1.64 µM
same,TGI,[5],3.16 µM
same,GI50,[6],3.75 µM
same,TGI,[6],20.5 µM
same,GI50,[7],1.84 µM
same,TGI,[7],4.1 µM
same,GI50,[8],2.45 µM
same,TGI,[8],8.26 µM
same,GI50,[9],2.17 µM
same,TGI,[9],4.8 µM
same,GI50,[10],14.6 µM
same,TGI,[10],33.4 µM
same,GI50,[11],2.35 µM
same,TGI,[11],5.81 µM
same,GI50,[12],2.97 µM
same,TGI,[12],10.6 µM
same,GI50,[13],11.3 µM
same,TGI,[13],28.1 µM
same,GI50,[14],12.6 µM
same,TGI,[14],37.4 µM
same,GI50,[15],2.09 µM
same,TGI,[15],4.59 µM
same,GI50,[16],1.77 µM
same,TGI,[16],3.33 µM
same,GI50,[17],1.69 µM
same,TGI,[17],3.08 µM
same,GI50,[18],2 µM
same,TGI,[18],5.54 µM
same,GI50,[19],2.68 µM
same,TGI,[19],10.7 µM
same,GI50,[20],1.98 µM
same,TGI,[20],4.01 µM
same,GI50,[21],> 100 µM
same,TGI,[21],> 100 µM
same,GI50,[22],14.3 µM
same,TGI,[22],32.3 µM
same,GI50,[23],2.2 µM
same,TGI,[23],5.36 µM
same,GI50,[24],18 µM
same,TGI,[24],48.2 µM
same,GI50,[25],2.15 µM
same,TGI,[25],4.83 µM
same,GI50,[26],11.7 µM
same,TGI,[26],26.6 µM
same,GI50,[27],8.07 µM
same,TGI,[27],32.7 µM
same,GI50,[28],1.87 µM
same,TGI,[28],3.87 µM
same,GI50,[29],2.05 µM
same,TGI,[29],4.46 µM
same,GI50,[30],1.6 µM
same,TGI,[30],3.48 µM
same,GI50,[31],10.1 µM
same,TGI,[31],33.3 µM
same,GI50,[32],1.86 µM
same,TGI,[32],3.73 µM
same,GI50,[33],2.06 µM
same,TGI,[33],4.26 µM
same,GI50,[34],3.03 µM
same,TGI,[34],9.38 µM
same,GI50,[35],1.78 µM
same,TGI,[35],3.34 µM
same,GI50,[36],3.45 µM
same,TGI,[36],23.8 µM
same,GI50,[37],2.2 µM
same,TGI,[37],4.96 µM
same,GI50,[38],1.71 µM
same,TGI,[38],3.22 µM
same,GI50,[39],3.5 µM
same,TGI,[39],13 µM
same,GI50,[40],10.6 µM
same,TGI,[40],26.6 µM
same,GI50,[41],5.16 µM
same,TGI,[41],25.5 µM
same,GI50,[42],1.63 µM
same,TGI,[42],3.07 µM
same,GI50,[43],1.85 µM
same,TGI,[43],3.83 µM
same,GI50,[44],3.3 µM
same,TGI,[44],19.4 µM
same,GI50,[45],3.22 µM
same,TGI,[45],15.3 µM
same,GI50,[46],2.58 µM
same,TGI,[46],9.61 µM
same,GI50,[47],3.28 µM
same,TGI,[47],11.3 µM
same,GI50,[48],1.82 µM
same,TGI,[48],3.3 µM
same,GI50,[49],6.37 µM
same,TGI,[49],> 100 µM
same,GI50,[50],2.44 µM
same,TGI,[50],7.17 µM
same,GI50,[51],1.93 µM
same,TGI,[51],4.91 µM
same,GI50,[52],3.27 µM
same,TGI,[52],14.9 µM
same,GI50,[53],1.97 µM
same,TGI,[53],3.95 µM
same,GI50,[54],1.92 µM
same,TGI,[54],4.26 µM
same,GI50,[55],1.77 µM
same,TGI,[55],4.13 µM
same,GI50,[56],1.84 µM
same,TGI,[56],3.95 µM
same,GI50,[57],2.23 µM
same,TGI,[57],6.51 µM
same,GI50,[58],2.03 µM
same,TGI,[58],6.77 µM
O=c1[nH]c2ccccc2cc1CSc1ccc(Nc2nccc(-c3ccc(Cl)cc3)n2)cc1,GI50,[1],0.917 µM
same,TGI,[1],5.52 µM
same,GI50,[2],4.9 µM
same,TGI,[2],30.9 µM
same,GI50,[3],1.72 µM
same,TGI,[3],3.45 µM
same,GI50,[4],1.16 µM
same,TGI,[4],2.55 µM
same,GI50,[5],3.92 µM
same,TGI,[5],15.2 µM
same,GI50,[6],1.66 µM
same,TGI,[6],4.85 µM
same,GI50,[7],12.9 µM
same,TGI,[7],26.2 µM
same,GI50,[8],3.71 µM
same,TGI,[8],14.3 µM
same,GI50,[9],1.54 µM
same,TGI,[9],13.4 µM
same,GI50,[10],2.16 µM
same,TGI,[10],6.98 µM
same,GI50,[11],43.2 µM
same,TGI,[11],> 100 µM
same,GI50,[12],2.57 µM
same,TGI,[12],18.3 µM
same,GI50,[13],0.945 µM
same,TGI,[13],2.46 µM
same,GI50,[14],1.42 µM
same,TGI,[14],4.77 µM
same,GI50,[15],1.6 µM
same,TGI,[15],3.5 µM
same,GI50,[16],1.99 µM
same,TGI,[16],4.47 µM
same,GI50,[17],4.45 µM
same,TGI,[17],23.6 µM
same,GI50,[18],1.17 µM
same,TGI,[18],2.73 µM
same,GI50,[19],1.46 µM
same,TGI,[19],3.5 µM
same,GI50,[20],1.7 µM
same,TGI,[20],4.42 µM
same,GI50,[21],1.3 µM
same,TGI,[21],2.88 µM
same,GI50,[22],1.23 µM
same,TGI,[22],2.6 µM
same,GI50,[23],1.15 µM
same,TGI,[23],3.14 µM
same,GI50,[24],2.26 µM
same,TGI,[24],5.49 µM
same,GI50,[25],11 µM
same,TGI,[25],> 100 µM
same,GI50,[26],1.65 µM
same,TGI,[26],3.34 µM
same,GI50,[27],1.07 µM
same,TGI,[27],4.97 µM
same,GI50,[28],0.644 µM
same,TGI,[28],3.65 µM
same,GI50,[29],0.744 µM
same,TGI,[29],2.18 µM
same,GI50,[30],2.17 µM
same,TGI,[30],6.79 µM
same,GI50,[59],1.83 µM
same,TGI,[59],5.24 µM
same,GI50,[31],2.24 µM
same,TGI,[31],8.07 µM
same,GI50,[32],0.368 µM
same,TGI,[32],1.44 µM
same,GI50,[33],2.75 µM
same,TGI,[33],13.1 µM
same,GI50,[34],1.13 µM
same,TGI,[34],3.32 µM
same,GI50,[35],4.05 µM
same,TGI,[35],25.3 µM
same,GI50,[36],1.18 µM
same,TGI,[36],2.58 µM
same,GI50,[37],0.383 µM
same,TGI,[37],1.42 µM
same,GI50,[38],1.81 µM
same,TGI,[38],6.09 µM
same,GI50,[39],2.49 µM
same,TGI,[39],9.56 µM
same,GI50,[40],0.245 µM
same,TGI,[40],1.42 µM
same,GI50,[41],2.47 µM
same,TGI,[41],11.2 µM
same,GI50,[42],1.83 µM
same,TGI,[42],4.03 µM
same,GI50,[43],1.66 µM
same,TGI,[43],3.4 µM
same,GI50,[44],0.621 µM
same,TGI,[44],3.45 µM
same,GI50,[45],2.93 µM
same,TGI,[45],23.2 µM
same,GI50,[46],3.78 µM
same,TGI,[46],56.9 µM
same,GI50,[47],0.334 µM
same,TGI,[47],1.26 µM
same,GI50,[48],1.26 µM
same,TGI,[48],3.04 µM
same,GI50,[49],1.52 µM
same,TGI,[49],9.16 µM
same,GI50,[50],13.3 µM
same,TGI,[50],79.5 µM
same,GI50,[51],1.83 µM
same,TGI,[51],6.28 µM
same,GI50,[52],2.41 µM
same,TGI,[52],21.5 µM
same,GI50,[53],2.64 µM
same,TGI,[53],25 µM
same,GI50,[54],0.776 µM
same,TGI,[54],2.14 µM
same,GI50,[55],2.59 µM
same,TGI,[55],15.9 µM
same,GI50,[56],1.02 µM
same,TGI,[56],15.2 µM
same,GI50,[57],1.11 µM
same,TGI,[57],2.8 µM
same,GI50,[58],6.37 µM
same,TGI,[58],29.7 µM
